Legend:
p53 in A2780 cells = assay: p53 ELISA (preservation of p53 in A2780 cells); format: cell-based; details: Homo sapiens, treated with compound for 16 hours, read-out: p53-elisa LAD (lowest dose giving at least 140% of the value for p53 present in the control)
Description: The capacity of the compounds to preserve p53 in A2780 cells was measured with the p53 enzyme linked immunosorbent assay (ELISA). The p53 assay is a “sandwich” enzyme immunoassay employing two polyclonal antibodies. A polyclonal antibody, specific for the p53 protein, has been immobilized onto the surface of the plastic wells. Any p53 present in the sample to be assayed will bind to the capture antibody. The biotinylated detector polyclonal antibody also recognizes p53 protein, and will bind to any p53, which has been retained by the capture antibody. The detector antibody, in turn, is bound by horseradish peroxidase-conjugated streptavidin. The horseradish peroxidase catalyses the conversion of the chromogenic substrate o-phenylene diamine, the intensity of which is proportional to the amount of p53 protein bound to the plate. The coloured reaction product is quantified using a spectrophotometer. Quantitation is achieved by the construction of a standard curve using known concentrations of purified recombinant HIS tagged p53 protein (see example C.1).
A2780 cells (ATCC) were cultivated in RPMI 1640 supplemented with 10% fetal calf serum (FCS), 2 mM L-glutamine and gentamycin at 37° C. in a humidified incubator with 5% CO2.
A2780 cells were seeded at 20.000 cells per well in a 96 well plate, cultured for 24 hours and treated with compound for 16 hours at 37° C. in a humidified incubator. After incubation, the cells were washed once with phosphate-buffered saline and 30 μl, per well, low salt RIPA buffer (20 mM tris, pH7.0, 0.5 mM EDTA, 1% Nonidet P40, 0.5% DOC, 0.05% SDS, 1 mM PMSF, 1 μg/ml aprotinin and 0.5 μ/ml leupeptin) was added. Plates were placed on ice for 30 minutes to complete the lysis. p53 protein was detected in de lysates by using the sandwich ELISA, described below.
High binding polystyrene EIA/RIA 96 well plates (Costar 9018) were coated with the capture antibody pAb1801 (Abcam ab28-100) at a concentration of 1 μg/ml in coating buffer (0.1 M NaHCO3 pH8.2), 50 μl per well. The antibody was allowed to adhere overnight at 4° C. Coated plates were washed once with phosphate-buffered saline (PBS)/0.05% Tween 20 and 300 μl of blocking buffer (PBS, 1% bovine serum albumins (BSA)) was added, for an incubation period of 2 hours at room temperature. Dilutions of purified recombinant HIS tagged p53 protein, ranging from 3-200 ng/ml, were made in blocking buffer and used as standards.
Plates were washed twice with PBS/0.05% Tween 20 and blocking buffer or standards were added at 80 μl/well. To the standards, 20 μl of lysis buffer was added. The samples were added to the other wells at 20 μl lysate/well. After an overnight incubation at 4° C., plates were washed twice with PBS/0.05% Tween 20. Aliquots of 100 μl secondary polyclonal antibody p53(FL-393) (Tebubio, sc-6243) at a concentration of 1 μg/ml in blocking buffer were added to each well and allowed to adhere for 2 hours at room temperature. Plates were washed three times with PBS/0.05% Tween 20. Detection antibody anti-rabbit HRP (sc-2004, Tebubio) at 0.04 μg/ml in PBS/1% BSA was added and incubated for 1 hour at room temperature. Plates were washed three times with PBS/0.05% Tween 20 and 100 μl of substrate buffer was added (substrate buffer was prepared shortly before use by adding 1 tablet of 10 mg o-phenylene diamine (OPD) from Sigma and 125 μl 3% H2O2 to 25 ml OPD buffer: 35 mM citric acid, 66 mM Na2HPO4, pH5.6). After 5 to 10 minutes, colour reaction was stopped by adding 50 μl stop buffer (1 M H2SO4) per well. The absorbance at dual wavelengths of 490/655 nm was measured using a Biorad micro plate reader and the results were then analyzed.
For each experiment, controls (containing no drug) and a blank incubation (containing no cells or drugs) were run in parallel. The blank value was subtracted from all control and sample values. For each sample, the value of p53 (in absorbance units) was expressed as the percentage of the value for p53 present in the control. […]

[1] = tested on: A2780 ovarian cancer cells; assay: Proliferation assay (Alamar Blue); format: cell-based; details: Homo sapiens, 96 h, 4-day incubation, read-out: pIC50 (negative log value of the IC50-value) (converted)
Description: Cellular activity of the compounds of formula (I) was determined on A2780 tumour cells using a colorimetric assay for cell toxicity or survival (see example C.2).
The human A2780 ovarian cancer cells were a kind gift from Dr. T. C. Hamilton (Fox Chase Cancer Centre, Pennsylvania, U.S.A.). The cells were cultured in RPMI 1640 medium supplemented with 2 mM L-Glutamine, 50 μg/ml gentamicin and 10% fetal calf serum.
Resazurin was purchased from Aldrich (Prod. No. 199303). Potassium ferrocyanide, potassium ferricyanide, KH2PO4 and K2HPO4 were purchased from Sigma (Prod. Nos. P9387, P8131, P5655 and P8281, respectively).
Potassium Phosphate Buffer 0.1 M (PPB) was made as follows: 2.72 gram KH2PO4 and 13.86 gram K2HPO4 were dissolved in 500 ml milli-Q H2O, the pH was adjusted to pH 7.4 and the volume was brought to 1 liter with milli-Q H2O; the buffer was filter sterilised and stored at room temperature. Resazurin stock solution (PPB-A) was prepared fresh by dissolving 45 mg resazurin in 15 ml PBS. 30 mM potassium ferricyanide (PPB-B) was prepared by dissolving 0.987 gram potassium ferricyanide in 100 ml PPB. 30 mM potassium ferrocyanide (PPB-C) was prepared by dissolving 1.266 gram potassium ferrocyanide in 100 ml PPB.
Mixture of PPB-A, PPB-B and PPB-C was prepared by mixing equal volumes of the respective solutions. Resazurin work solution (herein termed “Alamar Blue” solution) was prepared by diluting said mixture 20× (vol/vol) in PPB and filter sterilising; the Alamar Blue solution could be kept at 4° C. for a maximum of 2 weeks.
For experiments in 384 wells plates the cells were seeded at a density of 5×10^3 cells/ml in Falcon 384-well culture plates (Life Technologies, Merelbeke, Belgium), black with clear bottom, in 45 μl culture medium. Cells were allowed to adhere to plastic for 24 hr. The tested compound was pre-diluted (1/50 in culture medium) and 5 μl pre-diluted compound was added to the wells. Following 4-day incubation, 10 μl of the Alamar Blue solution was added to each well and the cells were further incubated for 5 hrs (A2780) at 37° C. The fluorescence intensity was measured for each well with a Fluorescence plate reader (Fluorskan, Labsystems, 540 nm excitation and 590 nm emission)
The antiproliferative activity was calculated as percentage of remaining viable cells in treated versus control (untreated cells) conditions. Within an experiment, the result for each experimental condition is the mean of 3 replicate wells. When appropriate, the experiments were repeated to establish full concentration-response curves. When appropriate, IC50-values (concentration of the drug, needed to reduce cell growth to 50% of the control) were computed using probit analysis for graded data (Finney, D. J., Probit Analyses, 2nd Ed. Chapter 10, Graded Responses, Cambridge University Press, Cambridge 1962). Herein the effects of test compounds are expressed as pIC50 (the negative log value of the IC50-value) (see Table 4).

| Compound | minimal effective concentration (p53 in A2780 cells) | IC50 [1] |
| --- | --- | --- |
| CCC1(C)CN(CCc2c[nH]c3ccccc23)c2ccc(Nc3ccnc4c3CCC4O)cc2O1 (stereo not drawn) [Compound 27] | 1 µM | 5.13 µM |
| OC1CCc2c(Nc3ccc4c(c3)OC3(CCCC3)CN4CCc3c[nH]c4ccccc34)ccnc21 (stereo not drawn) [Compound 28] | 3 µM | 4.9 µM |
| OC1CCc2c(Nc3ccc4c(c3)OC3(CCCCC3)CN4CCc3c[nH]c4ccccc34)ccnc21 (stereo not drawn) [Compound 29] | 10 µM | ~5.13 µM |
| OC1CCc2c(Nc3ccc4c(c3)OC3(CCOCC3)CN4CCc3c[nH]c4ccccc34)ccnc21 (stereo not drawn) [Compound 30] | > 10 µM | 6.31 µM |
| OC1CCc2c(Nc3ccc4c(c3)OC3(CCNCC3)CN4CCc3c[nH]c4ccccc34)ccnc21 (stereo not drawn) [Compound 31] | > 10 µM | > 10 µM |
| CC(C)N1CCC2(CC1)CN(CCc1c[nH]c3ccccc13)c1ccc(Nc3ccnc4c3CCC4O)cc1O2 (stereo not drawn) [Compound 33] | > 10 µM | 2.19 µM |
| Cc1cccc2c(CCN3CC4(CCCCC4)Oc4cc(Nc5ccnc(CO)c5)ccc43)c[nH]c12 [Compound 34] | 0.3 µM | 4.37 µM |
| OCc1cc(Nc2ccc3c(c2)OC(c2ccoc2)CN3CCc2c[nH]c3ccccc23)ccn1 (stereo not drawn) [Compound 35] | 3 µM | ~5.13 µM |
| CC(C)N1CCC2(CC1)CN(CCc1c[nH]c3ccccc13)c1ccc(Nc3ccnc(CO)c3)cc1O2 [Compound 36] | > 10 µM | 3.39 µM |
| Cc1cccc2c(CCN3CC(C)Oc4cc(Nc5ccnc(CO)c5)ccc43)c[nH]c12 (stereo not drawn) [Compound 37] | > 10 µM | 3.55 µM |
| Cc1cccc2c(CCN3CC(C)(C)Oc4cc(Nc5ccnc(CO)c5)ccc43)c[nH]c12 [Compound 38] | > 10 µM | 3.72 µM |
| OCc1cc(Nc2ccc3c(c2)OC2(CCSCC2)CN3CCc2c[nH]c3ccccc23)ccn1 [Compound 39] | > 10 µM | ~4.79 µM |
| OCc1cc(Nc2ccc3c(c2)OC2(CCCC2)CN3CCc2c[nH]c3ccccc23)ccn1 [Compound 40] | > 10 µM | ~4.79 µM |
| OCc1cc(Nc2ccc3c(c2)OC2(CCCCC2)CN3CCc2c[nH]c3ccccc23)ccn1 [Compound 41] | > 10 µM | ~4.79 µM |
| Cc1cccc2c(CCN3CC(C)Oc4cc(Nc5ccnc6c5CCC6O)ccc43)c[nH]c12 (stereo not drawn) [Compound 42] | > 10 µM | 4.79 µM |
| CN1CCC2(CC1)CN(CCc1c[nH]c3ccccc13)c1ccc(Nc3ccnc(CO)c3)cc1O2 [Compound 43] | > 10 µM | ~5.01 µM |
| Cc1cccc2c(CCN3CC(C)(C)Oc4cc(Nc5ccnc6c5CCC6O)ccc43)c[nH]c12 (stereo not drawn) [Compound 44] | > 10 µM | 5.01 µM |

| Compound | minimal effective concentration (p53 in A2780 cells) | IC50 [1] |
| --- | --- | --- |
| OCc1cc(Nc2ccc3c(c2)OC2(CCOCC2)CN3CCc2c[nH]c3ccccc23)ccn1 [Compound 45] | > 10 µM | 6.31 µM |
| CCC1(C)CN(CCc2c[nH]c3ccccc23)c2ccc(Nc3ccnc(CO)c3)cc2O1 (stereo not drawn) [Compound 46] | > 10 µM | 6.92 µM |
| COc1cccc2c(CCN3CCOc4cc(Nc5ccncc5)ccc43)c[nH]c12 [Compound 47] | > 10 µM | ~6.46 µM |
| Cc1cccc2c(CCN3CCOc4cc(Nc5ccncc5)ccc43)c[nH]c12 [Compound 48] | > 10 µM | 3.47 µM |
| c1ccc2c(CCN3CCOc4cc(Nc5ccncc5)ccc43)coc2c1 [Compound 49] | > 10 µM | 4.79 µM |
| Fc1cc(Nc2ccncc2)cc2c1N(CCc1c[nH]c3ccccc13)CCO2 [Compound 50] | > 10 µM | 8.13 µM |
| CN1CCC2(CC1)CN(CCc1c[nH]c3ccccc13)c1ccc(Nc3ccncc3)cc1O2 [Compound 51] | > 10 µM | 3.02 µM |
| Cc1cccc2c(CCN3CC(C)(C)Oc4cc(Nc5ccncc5)ccc43)c[nH]c12 [Compound 52] | > 10 µM | 3.09 µM |
| Cc1cccc2c(CCN3CC(C)Oc4cc(Nc5ccncc5)ccc43)coc12 (stereo not drawn) [Compound 53] | > 10 µM | 3.47 µM |
| CCC1(C)CN(CCc2c[nH]c3ccccc23)c2ccc(Nc3ccncc3)cc2O1 (stereo not drawn) [Compound 54] | > 10 µM | 3.63 µM |
| c1ccc2c(CCN3CC4(CCCCC4)Oc4cc(Nc5ccncc5)ccc43)c[nH]c2c1 [Compound 55] | > 10 µM | 3.72 µM |
| c1ccc2c(CCN3CC4(CCSCC4)Oc4cc(Nc5ccncc5)ccc43)c[nH]c2c1 [Compound 56] | > 10 µM | ~4.79 µM |
| Cc1cccc2c(CCN3CC4(CCCCC4)Oc4cc(Nc5ccncc5)ccc43)c[nH]c12 [Compound 59] | > 10 µM | 2.45 µM |
| CC1Oc2cc(Nc3ccncc3)ccc2N(CCc2c[nH]c3ccccc23)C1=O (stereo not drawn) [Compound 61] | > 10 µM | > 10 µM |
| CC1(C)CN(CCc2c[nH]c3ccccc23)c2ccc(Nc3ccncc3)cc2O1 [Compound 62] | > 10 µM | 5.37 µM |
| CC1(C)Oc2cc(Nc3ccncc3)ccc2N(CCc2c[nH]c3ccccc23)C1=O [Compound 63] | > 10 µM | > 10 µM |

— patent publication US8288377B2, “Inhibitors of the interaction between MDM2 and p53” (Janssen Pharmaceutica N.V., priority 2007, dated 2012)
